Results: the NIST ThermoML archive (doi:10.1007/s10765-013-1487-y)
“And” between values parts separate entries of the source, which are not always exact repeats. Identical values can stand only once.

Conditions: 101.33 kPa, Liquid; for mass density: Vibrating tube method

CCCCCC[n+]1ccn(C)c1.O=S(=O)([N-]S(=O)(=O)C(F)(F)F)C(F)(F)F
Capillary tube (Ostwald / Ubbelohde) method
Conditions | viscosity [mPa·s]
293.25 K | 89.98
298.19 K | 71.11

CCOS(=O)(=O)[O-].CCn1cc[n+](C)c1 [1-ethyl-3-methylimidazolium ethyl sulfate]
Conditions | mass density
290.65 K | 1243.24 kg/m3
290.66 K | 1243.24 kg/m3
293.15 K | 1241.55 kg/m3
293.16 K | 1241.54 kg/m3
295.65 K | 1239.85 kg/m3
298.15 K | 1238.14 kg/m3 and 1238.15 kg/m3
298.16 K | 1238.15 kg/m3
300.65 K | 1236.44 kg/m3 and 1236.46 kg/m3
300.66 K | 1236.45 kg/m3
303.15 K | 1234.75 kg/m3 and 1234.76 kg/m3
305.64 K | 1233.06 kg/m3
305.65 K | 1233.06 kg/m3
305.66 K | 1233.06 kg/m3
308.14 K | 1231.37 kg/m3
308.15 K | 1231.37 kg/m3
308.16 K | 1231.37 kg/m3
310.64 K | 1229.68 kg/m3 and 1229.69 kg/m3
310.66 K | 1229.68 kg/m3
313.15 K | 1228 kg/m3
315.64 K | 1226.32 kg/m3
315.66 K | 1226.31 kg/m3
318.15 K | 1224.63 kg/m3 and 1224.64 kg/m3
320.65 K | 1222.96 kg/m3

viscosity [mPa·s]
Conditions | 293.14 K | 293.23 K | 298.18 K | 298.19 K | 303.15 K | 308.21 K | 313.14 K | 318.13 K
Capillary tube (Ostwald / Ubbelohde) method | – | 128.62 | 99.37 | – | – | – | – | –
Vibrating wire viscometry | 125.7 | – | – | 97.19 | 76.8 | 61.42 | 50.05 | 41.42

CCOS(=O)(=O)[O-].CC[n+]1cccc(C)c1 [1-ethyl-3-methylpyridinium ethylsulfate]
Capillary tube (Ostwald / Ubbelohde) method
Conditions | viscosity [mPa·s]
293.16 K | 182.68
298.13 K | 135.35
